Measurements reported in PubChem BioAssay AID1963979 (Molecular Pharmacology Branch, DTP, NCI, 2024).

Test system: 361931-004-R-J1-PDC multicell spheroid viability
Test: Anticancer human tumor 361931-004-R-J1-PDC patient-derived colon adenocarcinoma cell line growth inhibition [PI3K]
Details: for IC50: curve of first compound; for viability, T/C: stronger effect = lower value
Summary of the method: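 Tumor cells were combined with HUVEC and MSCs into spheroids, then dosed with PI3K-inhibitor combinations over half-log ranges capped near clinical Cmax or 10 microM.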

[1] = second compound 0.00316 µM, first compound 0.0316 µM
[2] = second compound 0.00316 µM, first compound 0.1 µM
[3] = second compound 0.00316 µM, first compound 0.316 µM
[4] = second compound 0.00316 µM, first compound 1 µM
[5] = second compound 0.00316 µM, first compound 3.16 µM
[6] = second compound 0.00316 µM, first compound 10 µM
[7] = second compound 0.01 µM, first compound 0.0316 µM
[8] = second compound 0.01 µM, first compound 0.1 µM
[9] = second compound 0.01 µM, first compound 0.316 µM
[10] = second compound 0.01 µM, first compound 1 µM
[11] = second compound 0.01 µM, first compound 3.16 µM
[12] = second compound 0.01 µM, first compound 10 µM
[13] = second compound 0.0316 µM, first compound 0.0316 µM
[14] = second compound 0.0316 µM, first compound 0.1 µM
[15] = second compound 0.0316 µM, first compound 0.316 µM
[16] = second compound 0.0316 µM, first compound 1 µM
[17] = second compound 0.0316 µM, first compound 3.16 µM
[18] = second compound 0.0316 µM, first compound 10 µM
[19] = second compound 0.1 µM, first compound 0.0316 µM
[20] = second compound 0.1 µM, first compound 0.1 µM
[21] = second compound 0.1 µM, first compound 0.316 µM
[22] = second compound 0.1 µM, first compound 1 µM
[23] = second compound 0.1 µM, first compound 3.16 µM
[24] = second compound 0.1 µM, first compound 10 µM
[25] = second compound 0.316 µM, first compound 0.0316 µM
[26] = second compound 0.316 µM, first compound 0.1 µM
[27] = second compound 0.316 µM, first compound 0.316 µM
[28] = second compound 0.316 µM, first compound 1 µM
[29] = second compound 0.316 µM, first compound 3.16 µM
[30] = second compound 0.316 µM, first compound 10 µM
[31] = second compound 1 µM, first compound 0.0316 µM
[32] = second compound 1 µM, first compound 0.1 µM
[33] = second compound 1 µM, first compound 0.316 µM
[34] = second compound 1 µM, first compound 1 µM
[35] = second compound 1 µM, first compound 3.16 µM
[36] = second compound 1 µM, first compound 10 µM
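Also: spheroids exposed to agents for seven days before readout.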

C=CC(=O)N1CCN(c2nc(=O)n(-c3c(C)ccnc3C(C)C)c3nc(-c4c(O)cccc4F)c(F)cc23)C(C)C1 (centres undefined) + CC(Nc1ccc2c(c1)OCCn1cc(N3C(=O)OCC3C(F)F)nc1-2)C(N)=O
IC50 (second compound 0.00316 µM): > 10 µM
IC50 (second compound 0.01 µM): > 10 µM
IC50 (second compound 0.0316 µM): > 10 µM
IC50 (second compound 0.1 µM): > 10 µM
IC50 (second compound 0.316 µM): > 10 µM
IC50 (second compound 1 µM): > 10 µM
viability, T/C [1]: 99.7%
viability, T/C [2]: 103%
viability, T/C [3]: 101%
viability, T/C [4]: 92.7%
viability, T/C [5]: 99.8%
viability, T/C [6]: 81.2%
viability, T/C [7]: 107%
viability, T/C [8]: 100%
viability, T/C [9]: 99.5%
viability, T/C [10]: 99.5%
viability, T/C [11]: 106%
viability, T/C [12]: 89.8%
viability, T/C [13]: 104%
viability, T/C [14]: 103%
viability, T/C [15]: 99.2%
viability, T/C [16]: 97.5%
viability, T/C [17]: 97%
viability, T/C [18]: 76.2%
viability, T/C [19]: 97.4%
viability, T/C [20]: 91.6%
viability, T/C [21]: 96.9%
viability, T/C [22]: 101%
viability, T/C [23]: 93.5%
viability, T/C [24]: 72.2%
viability, T/C [25]: 88.7%
viability, T/C [26]: 84.7%
viability, T/C [27]: 81.6%
viability, T/C [28]: 89.4%
viability, T/C [29]: 86%
viability, T/C [30]: 66%
viability, T/C [31]: 75.5%
viability, T/C [32]: 78.2%
viability, T/C [33]: 80%
viability, T/C [34]: 80.1%
viability, T/C [35]: 86.7%
viability, T/C [36]: 59.4%

CC(Cn1ccc(-c2ccc(C#N)c(Cl)c2)n1)NC(=O)c1cc(C(C)O)[nH]n1 (centres undefined) + CC(Nc1ccc2c(c1)OCCn1cc(N3C(=O)OCC3C(F)F)nc1-2)C(N)=O
IC50 (second compound 0.00316 µM): > 10 µM
IC50 (second compound 0.01 µM): > 10 µM
IC50 (second compound 0.0316 µM): > 10 µM
IC50 (second compound 0.1 µM): > 10 µM
IC50 (second compound 0.316 µM): > 10 µM
IC50 (second compound 1 µM): > 10 µM
viability, T/C [1]: 103%
viability, T/C [2]: 106%
viability, T/C [3]: 109%
viability, T/C [4]: 110%
viability, T/C [5]: 92.2%
viability, T/C [6]: 102%
viability, T/C [7]: 98.3%
viability, T/C [8]: 113%
viability, T/C [9]: 102%
viability, T/C [10]: 93.7%
viability, T/C [11]: 110%
viability, T/C [12]: 98.6%
viability, T/C [13]: 102%
viability, T/C [14]: 103%
viability, T/C [15]: 105%
viability, T/C [16]: 111%
viability, T/C [17]: 104%
viability, T/C [18]: 90.3%
viability, T/C [19]: 96%
viability, T/C [20]: 99.2%
viability, T/C [21]: 93.5%
viability, T/C [22]: 97.5%
viability, T/C [23]: 79.3%
viability, T/C [24]: 72%
viability, T/C [25]: 97.8%
viability, T/C [26]: 92.1%
viability, T/C [27]: 98.8%
viability, T/C [28]: 93.9%
viability, T/C [29]: 86.1%
viability, T/C [30]: 86.8%
viability, T/C [31]: 82.2%
viability, T/C [32]: 75.9%
viability, T/C [33]: 80.2%
viability, T/C [34]: 85.8%
viability, T/C [35]: 70.6%
viability, T/C [36]: 57.5%
